Data reported in patent publication US8288372B2, “Method for treating headache with loxapine” (Alexza Pharmaceuticals, Inc., priority 2002, dated 2012).
Read-outs that look alike come from different tables or passages of the source. Marks after values point to notes of the source that are not given here.

Assays:
[1] = test system: Male mice; experiment: Mouse writhing test (acetic acid 0.5% i.p.); settings: for Effect on the number of writhes induced by acetic acid: five doses i.p.; for Dose from which the number of writhes was significantly decreased: Mann Whitney U test vs vehicle
Method: Male mice weighing 23-28 g were used in this test. Mice were injected with acetic acid (0.5% i.p.). This treatment induces a recognizable writhing response in control animals. The number of writhes is counted for 10 minutes beginning 5 minutes after injection of acetic acid. Ten mice were studied per group. The test was performed blind. Loxapine and amoxapine (dispersed in 0.2% hydroxypropylmethylcellulose, then dissolved in saline) were evaluated at five doses, administered i.p. 30 minutes before acetic acid, and compared with a vehicle control (0.2% hydroxypropylmethylcellulose in saline) group. Dosage rates for loxapine were 0.125, 0.25, 0.5, 1 and 2 mg/kg. Dosage rates for amoxapine were 1, 2, 4, 8 and 16 mg/kg. […] The data were analyzed by comparing the treated groups with the vehicle control using Mann Whitney U tests.

[2] = cited from earlier work
[3] = test system: animal model; settings: chronic administration of amoxapine alone; cited from earlier work
[4] = Toxicokinetic analysis of loxapine plasma concentration after aerosol inhalation; assay type: in vivo, beagle dogs
Method: On the first day of the repeat dose (5 day) portion of the study, plasma samples were collected for toxicokinetic analysis prior to dosing, 2 minutes after the onset of dosing, immediately after dosing, 20 minutes and 1, 3, 9 and 24 hours post dosing. Samples were stored at −80° C. until loxapine plasma concentration analysis. Loxapine plasma concentration can be measured using analytical methods well known in the art, such as LC/MS, LC/MS/MS, and/or GC/MS. […] The rate of rise in loxapine plasma concentration is found to average at least 70 ng/mL/minute at the 2 mg/kg dose level over the first 2 minutes of dosing, and 20 ng/mL/minute at the 2 mg/kg dose level over the first 10 minutes of dosing. The rate of rise in loxapine plasma concentration is found to average at least 7 ng/mL/minute at the 0.2 mg/kg dose level over the first 2 minutes of dosing, and 2 ng/mL/minute at the 0.2 mg/kg dose level over the first 10 minutes of dosing. Therapeutic plasma levels of approximately at least 0.5 ng/mL, 1 ng/mL, 2 ng/mL, 4 ng/mL, 8 ng/mL, or even 15 ng/mL are obtained within 10 minutes, 5 minutes, and even within 2 minutes at both dose levels.

[5] = test system: subjects with a history of moderate to severe migraine headache; experiment: Phase II clinical trial of loxapine for the treatment of acute migraine attacks; assay type: in vivo, human
Description: The study methodology is a double-blind, randomized, placebo-controlled dose-ranging trial. Healthy male and female subjects 18 to 65 years of age, inclusive, with a history of moderate to severe migraine headache by self-report (migraine with or without aura) with average frequency of 1-6 attacks per month during the past 3 months are recruited to participate in the study. Those subjects meeting entry criteria are enrolled and randomized to receive one of the following treatments: placebo, loxapine rapid delivery system ˜1.25 mg, loxapine rapid delivery system ˜2.5 mg, loxapine rapid delivery system ˜5 mg, loxapine rapid delivery system ˜10 mg. Higher loxapine doses may also be tested if found safe in a Phase I clinical trial. The loxapine rapid delivery system is a means of delivering loxapine to a migraine patient such that maximum plasma drug concentrations are obtained within 1 hour, 30 minutes, 15 minutes, 10 minutes, 5 minutes, or even 2 minutes or less. The condensation aerosol delivery system described above with respect to a Phase I clinical trial is one such system. Other rapid delivery systems include various durations of intravenous infusions or injections.
Immediately prior to receiving the treatment to which the patient has been randomized, the patient rates their severity of headache and nausea on a 4-point scale (0—absent, 1—mild, 2—moderate, 3—severe) and photophobic and phonophobia on a 2-point scale (Does light make your headache worse? 0—No, 1—Yes; Does noise make your headache worse? O—No, 1—Yes). Alternatively, an 11-point visual-analogue scale (0—none to 10—maximally severe) or other appropriate scale can be used. Subjects are asked to repeat these ratings at timepoints of 15 and 30 minutes following treatment, and also at 1, 2, 4, 8, 12 and 24 hours post treatment. Subjects are further asked for their global assessment of treatment efficacy (1—very poor to 5—very good) at 120 minutes and 24 hours post treatment. Concomitant medications, if any, are also recorded.

[6] = test system: person with migraine headache; experiment: Clinical use of loxapine tablet for an acute migraine attack; assay type: in vivo, human; settings: 25 mg tablet by mouth
Method: A person in generally good health notes onset of moderate pain localizing to the right side of their head over approximately 10 minutes while at home. Over the next 10 minutes, the pain becomes more severe, characterized by throbbing. The person recognizes this as a migraine headache, and also knows that for their such headaches, when untreated, tend to persist for at least a full day with nausea accompanying the headache pain and with the pain so severe as to render sleeping difficult or impossible. The person turns down the lights in their living room to avoid the pain caused by bright light entering their eyes, and turns off the radio, because noise from the radio was worsening their headache pain. They take a 25 mg loxapine tablet by mouth with a glass of water. Over the next 15 minutes, the headache pain begins to […], and the person's stomach is mildly upset. […] Their stomach no longer bothers them. […] Light and sound are no longer bothersome. They eat a normal meal without stomach upset.

[7] = test system: Beagle Dog; settings: in vivo
[8] = 1 mg/kg i.p. 30 minutes before acetic acid, first or second experiment
[9] = 2 mg/kg i.p. 30 minutes before acetic acid, first or second experiment

Clc1ccc2c(c1)C(N1CCNCC1)=Nc1ccccc1O2 [Amoxapine, 2-chloro-11(1-piperazinyl)dibenz(b,f) (1,4) oxazepine]
Reduction in acetic acid writhing, percentage of control vehicle pretreatment [1, 8]: −23% NS
Reduction in acetic acid writhing, percentage of control vehicle pretreatment [1, 9]: −39% *
Reduction in acetic acid writhing, percentage of control vehicle pretreatment ([1]; 4 mg/kg i.p. 30 minutes before acetic acid, first or second experiment): −71% ***
Reduction in acetic acid writhing, percentage of control vehicle pretreatment ([1]; 8 mg/kg i.p. 30 minutes before acetic acid, first or second experiment): −93% ***
Reduction in acetic acid writhing, percentage of control vehicle pretreatment ([1]; 16 mg/kg i.p. 30 minutes before acetic acid): −100% ***
Effect on the number of writhes induced by acetic acid [1]: dose-dependently decreased the number of writhes
Dose from which a clear / marked effect on writhing was observed ([1]; i.p.): ≥ 4 mg/kg
Dose from which the number of writhes was significantly decreased ([1]; i.p.): ≥ 2 mg/kg
Dose from which sedation was observed ([1]; male, mouse, in vivo, ip): ≥ 2 mg/kg
Cmax ([2]; lowest used oral dose 50 mg (Jue et al. 1982)): ~30 ng/mL
Cmax ([2]; oral 100 mg (Calvo et al. 1985)): ~50 ng/mL
Tmax after oral administration ([2]; oral 100 mg): ~1.5 h
Blood levels after repeated dosing ([2]; repeated amoxapine dosing (Calvo et al. 1985)): 30 to 300 ng/mL
Latency of the tail-flick [3]: no change

CN1CCN(C2=Nc3ccccc3Oc3ccc(Cl)cc32)CC1 [Loxapine, 2-chloro-11(4-methyl-1-piperazinyl)dibenz(b,f) (1,4) oxazepine]
Reduction in acetic acid writhing, percentage of control vehicle pretreatment ([1]; 0.125 mg/kg i.p. 30 minutes before acetic acid): −57% **
Reduction in acetic acid writhing, percentage of control vehicle pretreatment ([1]; 0.25 mg/kg i.p. 30 minutes before acetic acid): −90% ***
Reduction in acetic acid writhing, percentage of control vehicle pretreatment [1, 8]: −100% ***
Reduction in acetic acid writhing, percentage of control vehicle pretreatment [1, 9]: −99% ***
Effect on the number of writhes induced by acetic acid [1]: dose-dependently decreased the number of writhes
Dose from which a clear / marked effect on writhing was observed ([1]; i.p.): ≥ 0.25 mg/kg
Dose from which the number of writhes was significantly decreased ([1]; i.p.): ≥ 0.125 mg/kg
Dose from which sedation was observed ([1]; i.p., mice): ≥ 0.25 mg/kg
Average rate of rise in loxapine plasma concentration ([4]; 0.2 mg/kg, first 2 minutes of dosing): at least 7 ng/mL/minute
Average rate of rise in loxapine plasma concentration ([4]; 0.2 mg/kg, first 10 minutes of dosing): ≥ 2 ng/mL/min
Average rate of rise in loxapine plasma concentration ([4]; 2 mg/kg, first 2 minutes of dosing): at least 70 ng/mL/minute
Average rate of rise in loxapine plasma concentration ([4]; 2 mg/kg, first 10 minutes of dosing): ≥ 20 ng/mL/min
Time to peak plasma concentration after end of drug inhalation ([4]; aerosol inhalation, first day of repeat dose): ≤ 2 min
Therapeutic effect of the drug ([5]; 5 mg and 10 mg, rapid delivery system, within 1 hour): strong therapeutic effect
Severity of headache in treated patients ([5]; 5 mg and 10 mg, at 1 hour, even 30 minutes, sometimes 15 minutes): markedly lower than prior to treatment
Headache relief versus placebo ([5]; 5 mg or 10 mg, at 1 hour, statistically significant at p<0.05 assuming large sample): marked advantage
Persistence of advantage versus placebo ([5]; 5 mg or 10 mg, unless placebo patients get rescue medication): persists at 2 hours, 4 hours, 8 hours, and even 24 hours
Signs of headache after brief nap [6]: without any signs of headache
Return of headache ([6]; no further medication): does not return over the next 72 hours
Headache pain ([6]; over the 1 hour following the first 15 minutes): diminishes slowly
Food consumption [7]: roughly normal
Gross pathology findings at necropsy [7]: No treatment related findings
Histopathological examination of gross lesions [7]: no treatment related findings
Histopathological examination of larynx, trachea, mainstem bronchi, lungs including bronchi [7]: No treatment related abnormalities
Signs of bronchoconstriction (wheezing, prolonged expiratory phase, cough) [7]: no signs of bronchoconstriction
Cmax for loxapine only ([2]; oral dose of 25 mg, a different study): 10 to 12 ng/mL
Tmax after oral administration ([2]; oral, manufacturer studies (Lederle Laboratories)): 2 to 3 h
